Laboratory results as given in patent US6995143B2, “Macrolides with antibacterial activity” (Basilea Pharmaceutica AG, priority 2002, dated 2006).
In brackets after ≈: the same amount, converted by molar mass.

How the values were obtained:
Assay type in all cases: cell-based
[1] = system: Streptococcus pneumoniae 12288; assay: MIC, standard microdilution technique
Method in brief: (§1)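 MIC endpoints reflect testing per the 2000 NCCLS M7-A5 standard method for aerobes.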

[2] = system: Staphylococcus aureus 745; assay: MIC, standard microdilution technique
Method in brief: as §1

[3] = system: Streptococcus pneumoniae l/l; assay: MIC, standard microdilution technique
Method in brief: as §1

[4] = system: Staphylococcus aureus ATCC 29213; assay: MIC, standard microdilution technique
Method in brief: as §1

[5] = system: Staphylococcus aureus 1086; assay: MIC, standard microdilution technique
Method in brief: as §1

[6] = system: Streptococcus pneumoniae ¼; assay: MIC, standard microdilution technique
Method in brief: as §1

[7] = system: Escherichia coli ATCC 25922; assay: MIC, standard microdilution technique
Method in brief: as §1

[8] = system: Streptococcus pneumoniae SL199T; assay: MIC, standard microdilution technique
Method in brief: as §1

[9] = system: Haemophilus influenzae 12214; assay: MIC, standard agar dilution method using HTM medium
Method in brief: (§2)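 Susceptibility of H. influenzae isolates is determined by dilution testing conducted to the NCCLS M7-A5 approved standard.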

[10] = system: Haemophilus influenzae QK50; assay: as above
Method in brief: as §2

[11] = system: Haemophilus influenzae QK12/87; assay: as above
Method in brief: as §2

[12] = system: Haemophilus influenzae B1501; assay: as above
Method in brief: as §2

| SMILES | minimum inhibitory concentration (MIC), Strain H [1] | minimum inhibitory concentration (MIC), Strain C [2] | minimum inhibitory concentration (MIC), Strain E [3] | minimum inhibitory concentration (MIC), Strain A [4] | minimum inhibitory concentration (MIC), Strain B [5] | minimum inhibitory concentration (MIC), Strain F [6] | minimum inhibitory concentration (MIC), Strain D [7] | minimum inhibitory concentration (MIC), Strain G [8] | minimum inhibitory concentration (MIC), Strain K [9] | minimum inhibitory concentration (MIC), Strain L [10] | minimum inhibitory concentration (MIC), Strain I [11] | minimum inhibitory concentration (MIC), Strain M [12] | further results |
| --- | --- | --- | --- | --- | --- | --- | --- | --- | --- | --- | --- | --- | --- |
| CC[C@H]1OC(=O)[C@H](C)C(=O)[C@H](C)[C@@H](O[C@@H]2O[C@H](C)C[C@H](N(C)C)[C@H]2O)[C@](C)(OC)C[C@@H](C)C(=O)[C@H](C)[C@H]2[C@@H](SCC(=O)Nc3cnc4ccccc4c3)C(=O)O[C@@]21C [Example 39] | 32 µg/mL (≈ 38.6 µM) | >32 µg/mL | <=0.06 μg/ml | <=0.06 μg/ml | <=0.06 μg/ml | 32 µg/mL (≈ 38.6 µM) | >32 µg/mL | 8 µg/mL (≈ 9.66 µM) | 16 µg/mL (≈ 19.3 µM) | 16 µg/mL (≈ 19.3 µM) | 16 µg/mL (≈ 19.3 µM) | 8 µg/mL (≈ 9.66 µM) |  |
| CC[C@H]1OC(=O)[C@H](C)C(=O)[C@H](C)[C@@H](O[C@@H]2O[C@H](C)C[C@H](N(C)C)[C@H]2O)[C@](C)(OC)C[C@@H](C)C(=O)[C@H](C)[C@H]2[C@@H](SCCC(=O)Nc3cnc4ccccc4c3)C(=O)O[C@@]21C (single isomer, unassigned) [Example 42] | >32 µg/mL | >32 µg/mL | <=0.06 μg/ml | 0.125 µg/mL (≈ 0.148 µM) | 0.125 µg/mL (≈ 0.148 µM) | 32 µg/mL (≈ 38 µM) | >32 µg/mL | 32 µg/mL (≈ 38 µM) | 16 µg/mL (≈ 19 µM) | 16 µg/mL (≈ 19 µM) | 16 µg/mL (≈ 19 µM) | 16 µg/mL (≈ 19 µM) |  |
| CC[C@H]1OC(=O)[C@H](C)C(=O)[C@H](C)[C@@H](O[C@@H]2O[C@H](C)C[C@H](N(C)C)[C@H]2O)[C@](C)(OC)C[C@@H](C)C(=O)[C@H](C)[C@H]2[C@@H](SCC(=O)NCc3ccc4c(c3)OCO4)C(=O)O[C@@]21C [Example 30] | >32 µg/mL | >32 µg/mL | <=0.06 μg/ml | 0.125 µg/mL (≈ 0.15 µM) | <=0.06 μg/ml | 32 µg/mL (≈ 38.3 µM) | >32 µg/mL | 16 µg/mL (≈ 19.2 µM) | 16 µg/mL (≈ 19.2 µM) | 16 µg/mL (≈ 19.2 µM) | 16 µg/mL (≈ 19.2 µM) | 8 µg/mL (≈ 9.58 µM) |  |
| CC[C@H]1OC(=O)[C@H](C)C(=O)[C@H](C)[C@@H](O[C@@H]2O[C@H](C)C[C@H](N(C)C)[C@H]2O)[C@](C)(OC)C[C@@H](C)C(=O)[C@H](C)[C@H]2[C@@H](SCC(=O)Nc3ccc4ncccc4c3)C(=O)O[C@@]21C [Example 38] | 32 µg/mL (≈ 38.6 µM) | >32 µg/mL | <=0.06 μg/ml | <=0.06 μg/ml | <=0.06 μg/ml | 4 µg/mL (≈ 4.83 µM) | >32 µg/mL | 8 µg/mL (≈ 9.66 µM) | 16 µg/mL (≈ 19.3 µM) | 16 µg/mL (≈ 19.3 µM) | 8 µg/mL (≈ 9.66 µM) | 8 µg/mL (≈ 9.66 µM) |  |
| CC[C@H]1OC(=O)[C@H](C)C(=O)[C@H](C)[C@@H](O[C@@H]2O[C@H](C)C[C@H](N(C)C)[C@H]2O)[C@](C)(OC)C[C@@H](C)C(=O)[C@H](C)[C@H]2[C@@H](SCC(=O)Nc3cc(C)on3)C(=O)O[C@@]21C [Example 33] | >32 µg/mL | >32 µg/mL | <=0.06 μg/ml | 0.5 µg/mL (≈ 0.639 µM) | 0.5 µg/mL (≈ 0.639 µM) | >32 µg/mL | >32 µg/mL | 32 µg/mL (≈ 40.9 µM) | 8 µg/mL (≈ 10.2 µM) | 8 µg/mL (≈ 10.2 µM) | 16 µg/mL (≈ 20.5 µM) | 8 µg/mL (≈ 10.2 µM) |  |
| CC[C@H]1OC(=O)[C@H](C)C(=O)[C@H](C)[C@@H](O[C@@H]2O[C@H](C)C[C@H](N(C)C)[C@H]2O)[C@](C)(OC)C[C@@H](C)C(=O)[C@H](C)[C@H]2[C@@H](SSc3ncccc3[N+](=O)[O-])C(=O)O[C@@]21C (single isomer, unassigned) [Example 3] | >32 µg/mL | >32 µg/mL | <=0.06 μg/ml | 2 µg/mL (≈ 2.51 µM) | 2 µg/mL (≈ 2.51 µM) | 16 µg/mL (≈ 20.1 µM) | >32 µg/mL | 32 µg/mL (≈ 40.1 µM) | >32 µg/mL | >32 µg/mL | >32 µg/mL | >32 µg/mL |  |
| CC[C@H]1OC(=O)[C@H](C)C(=O)[C@H](C)[C@@H](O[C@@H]2O[C@H](C)C[C@H](N(C)C)[C@H]2O)[C@](C)(OC)C[C@@H](C)C(=O)[C@H](C)[C@H]2[C@@H](SCC(=O)c3ccccn3)C(=O)O[C@@]21C [Example 7] | >32 µg/mL | >32 µg/mL | <=0.06 μg/ml | 1 µg/mL (≈ 1.31 µM) | 0.5 µg/mL (≈ 0.655 µM) | 32 µg/mL (≈ 41.9 µM) | >32 µg/mL | 32 µg/mL (≈ 41.9 µM) | 32 µg/mL (≈ 41.9 µM) | 32 µg/mL (≈ 41.9 µM) | 32 µg/mL (≈ 41.9 µM) | 32 µg/mL (≈ 41.9 µM) |  |
| CC[C@H]1OC(=O)[C@@](C)(F)C(=O)[C@H](C)[C@@H](O[C@@H]2O[C@H](C)C[C@H](N(C)C)[C@H]2O)[C@](C)(OC)C[C@@H](C)C(=O)[C@H](C)[C@H]2[C@@H](SCc3ccc(OC)cc3)C(=O)O[C@@]21C (single isomer, unassigned) [Example 1, (3R or S, 3aR, 4R or S, 6R, 8R, 9R, 10R, 12S, 15R, 15aS)-15-Ethyl-12-fluorooctahydro-8-methoxy-3-[[(4-methoxyphenyl)methyl]thio]-4,6,8,10,12,15a-hexamethyl-9-[[3,4,6-trideoxy-3-(dimethylamino)-β-D-xylo-hexopyranosyl]oxy]-2H-furo [2,3-c] oxacyclotetradecin-2,5,11,13 (3H,6H,12H)-tetrone] |  |  |  |  |  |  |  |  |  |  |  |  | MIC ([1]; read-out: minimum inhibitory concentration (MIC), Strain H): > 32 µg/mL; MIC ([2]; read-out: minimum inhibitory concentration (MIC), Strain C): > 32 µg/mL; MIC ([3]; read-out: minimum inhibitory concentration (MIC), Strain E): 0.5 µg/mL (≈ 0.639 µM); MIC ([4]; ATCC29213, read-out: minimum inhibitory concentration (MIC), Strain A): 2 µg/mL (≈ 2.56 µM); MIC ([5]; read-out: minimum inhibitory concentration (MIC), Strain B): 2 µg/mL (≈ 2.56 µM); MIC ([6]; read-out: minimum inhibitory concentration (MIC), Strain F): 8 µg/mL (≈ 10.2 µM); MIC ([7]; ATCC25922, read-out: minimum inhibitory concentration (MIC), Strain D): > 32 µg/mL; MIC ([8]; read-out: minimum inhibitory concentration (MIC), Strain G): 32 µg/mL (≈ 40.9 µM); MIC ([9]; read-out: minimum inhibitory concentration (MIC), Strain K): > 32 µg/mL; MIC ([10]; read-out: minimum inhibitory concentration (MIC), Strain L): 32 µg/mL (≈ 40.9 µM); MIC ([11]; read-out: minimum inhibitory concentration (MIC), Strain I): > 32 µg/mL; MIC ([12]; read-out: minimum inhibitory concentration (MIC), Strain M): 32 µg/mL (≈ 40.9 µM) |
